According to patent US6844020B2, “Solutions of carotenoids for use in foods and personal care products” (Kemin Foods, L.C., priority 2002, dated 2005):
Values joined by “and” are separate entries in the source; they are usually repeats but may differ in a detail not shown here. Identical values can stand only once. Like-named read-outs stand apart in the source and are kept apart here.

Tests used:
[1] = Astaxanthin solubility in essential oils; assay type: physicochemical
Procedure: (§1) Astaxanthin was dissolved in each oil until visibly saturated. The sample was then blanketed with argon and sonicated for ten minutes. When the sample was completely saturated, the solution was transferred to a micro centrifuge tube and centrifuged at 14,000 rpm for 10 minutes. The clarified oil was then analyzed for astaxanthin content. The method for analyzing lutein crystals was used to analyze astaxanthin, however, a few modifications were made. First, methylene chloride was substituted for […] when dissolving the samples. […] When determining total carotenoids, the absorbance was measured at 470 nm rather than 446 nm. [formula] [formula] [formula] Canthaxanthin in Essentials Oils

[2] = Beta-carotene solubility in essential oils; assay type: physicochemical
Procedure: Beta-carotene was dissolved in each oil until visibly saturated. The sample was then blanketed with argon and sonicated for ten minutes. When the sample was completely saturated, the solution was transferred to a micro centrifuge tube and centrifuged at 14,000 rpm for 10 minutes. The clarified oil was then analyzed for beta-carotene content. The method for analyzing lutein crystals, with a few modifications, was used to analyze beta-carotene. First, methylene chloride was substituted for […] when dissolving the samples. Second, when determining total carotenoids, the absorbance was measured at 453 nm rather than 446 nm. [formula] [formula] [formula]
% Beta Carotene=% Carotenoids*(% Total HPLC area of Beta Carotene/100)

[3] = cited from earlier work
[4] = assay type: physicochemical
Procedure: as §1, with “Canthaxanthin” for “Astaxanthin”, “microcentrifuge” for “micro centrifuge”, “canthaxanthin” for “astaxanthin”, “canthaxanthin,” for “astaxanthin,”, “466” for “470”, “Results and Discussion” for “[formula] Canthaxanthin in Essentials Oils”

[5] = Zeaxanthin solubility in essential oils; assay type: physicochemical
Procedure: as §1, with “Zeaxanthin” for “Astaxanthin”, “zeaxanthin” for “astaxanthin”, “zeaxanthin,” for “astaxanthin,”, “450” for “470”, “[formula]” for “[formula] Canthaxanthin in Essentials Oils”
% Zeaxanthin=% Carotenoids*(% Total HPLC area of zeaxanthin/100)

[6] = consumption of lutein and zeaxanthin; Seddon et al., 1994; cited from earlier work
[7] = in Carvacrol (clear oil), 282-197, lot 13403CI
[8] = in Spearmint oil, 05-6250-11, lot SP43-0208
[9] = in Thyme oil, White, 05-6275-01, lot TLC11-T049
[10] = in Bay oil, 50-6025-01, lot BA41-0484
[11] = in Cornmint, redistilled oil, 50-6100-01, lot CR43-0155
[12] = in Peppermint, Yakima redistilled oil, 50-6225-21, lot PY43-0157
[13] = in Spearmint, redistilled oil, 50-6250-11, lot 39SR-0163
[14] = in Tea Tree oil, 50-6270-01, lot TX43-0146
[15] = in Thyme, Pure oil, 50-6275-04, lot TP41-0053
[16] = in Thyme, Red oil, 50-6275-02, lot TR43-0158
[17] = in Thyme, White oil, 50-6275-01, lot TLC11-T477
[18] = in Thyme, White (NOW) oil, 7635

Compound: CC1=C(/C=C/C(C)=C/C=C/C(C)=C/C=C/C=C(C)/C=C/C=C(C)/C=C/C2=C(C)C(=O)[C@@H](O)CC2(C)C)C(C)(C)C[C@H](O)C1=O [Astaxanthin, astaxanthin]
- % Astaxanthin by HPLC [1, 7]: 0.2420%
- % Astaxanthin by HPLC ([1]; in Carvacrol (clear oil), 282-197, lot 13403CI, listed as astaxanthin): ~0.24%
- % Astaxanthin by HPLC [1, 8]: 0.0301%
- % Astaxanthin by HPLC [1, 9]: 0.1876%
- times less soluble than lutein ([1]; in spearmint oil): 33 times
- times less soluble than lutein ([1]; in white thyme oil): 16 times

Compound: CC1=C(/C=C/C(C)=C/C=C/C(C)=C/C=C/C=C(C)/C=C/C=C(C)/C=C/C2=C(C)CCCC2(C)C)C(C)(C)CCC1 [Beta-carotene, β-carotene]
- % Beta-Carotene [2, 10]: 0.16% and 0.163%
- % Beta-Carotene [2, 11]: 0.252%
- % Beta-Carotene [2, 12]: 0.263%
- % Beta-Carotene [2, 13]: 0.532%
- % Beta-Carotene [2, 14]: 0.427%
- % Beta-Carotene [2, 15]: 0.245%
- % Beta-Carotene [2, 16]: 0.267%
- % Beta-Carotene [2, 17]: 0.273%
- reported solubility ([3]; in "fats and oils"): 0.05-0.08%

Compound: CC1=C(/C=C/C(C)=C/C=C/C(C)=C/C=C/C=C(C)/C=C/C=C(C)/C=C/C2=C(C)C(=O)CCC2(C)C)C(C)(C)CCC1=O [Canthaxanthin, canthaxanthin]
- % Canthaxanthin by HPLC [4, 7]: 0.0020%
- % Canthaxanthin by HPLC [4, 8]: 0.0028%
- % Canthaxanthin by HPLC [4, 9]: 0.0036%

Compound: CC1=C(/C=C/C(C)=C/C=C/C(C)=C/C=C/C=C(C)/C=C/C=C(C)/C=C/C2=C(C)C[C@@H](O)CC2(C)C)C(C)(C)C[C@H](O)C1 [Zeaxanthin, zeaxanthin]
- % Carotenoids [5, 10]: 0.281%
- % Zeaxanthin [5, 10]: 0.276%
- % Carotenoids [5, 11]: 0.403%
- % Zeaxanthin [5, 11]: 0.397%
- % Carotenoids [5, 12]: 0.452%
- % Zeaxanthin [5, 12]: 0.446%
- % Carotenoids [5, 13]: 0.374%
- % Zeaxanthin [5, 13]: 0.369%
- % Carotenoids ([5]; in Tea Tree (NOW) oil, 7625): 0.398%
- % Zeaxanthin ([5]; in Tea Tree (NOW) oil, 7625): 0.394%
- % Carotenoids [5, 14]: 0.364%
- % Zeaxanthin [5, 14]: 0.361%
- % Carotenoids [5, 15]: 0.920%
- % Zeaxanthin [5, 15]: 0.916%
- % Carotenoids [5, 16]: 1.063%
- % Zeaxanthin [5, 16]: 1.059%
- % Carotenoids [5, 18]: 0.784%
- % Zeaxanthin [5, 18]: 0.782%
- % Carotenoids [5, 17]: 1.049%
- % Zeaxanthin [5, 17]: 1.043%
- zeaxanthin solubility ([5]; in all of the oils except the thyme oils): less than 1%
- zeaxanthin solubility ([5]; in thyme oil): ~1%
- reduction in age-related macular degeneration [6]: 57%
- reported solubility ([3]; in corn oil): 0.004%
